Source: patent US9642889B2, “Macrocyclic inhibitors of Flaviviridae viruses” (Selcia Limited, priority 2012, dated 2017)
Read-outs that look alike come from different tables or passages of the source.

How the values were obtained:
[1] = test system: Huh-7 HCV replicon cells (1b replicon); assay: anti-HCV activity in Huh-7 cell line harboring a HCV replicon (luciferase readout); assay type: cell-based; conditions: for EC50: inhibition of viral replication, Huh-7 HCV replicon cells, 3 days, read-out: EC50; for inhibition at 1 µM: Huh-7, read-out: Replicon 1b % inhibition at 1 μM, 1b replicon, 1 μM compound
cyclophilin A = cyclophilin A (Homo sapiens, UniProt P62937); assay: Cyclophilin A TR-FRET competitive binding assay; conditions: competition with CsA-Cy5 for His-tagged CypA, two-hour incubation
Sequence of cyclophilin A (P62937 whole entry, species assumed): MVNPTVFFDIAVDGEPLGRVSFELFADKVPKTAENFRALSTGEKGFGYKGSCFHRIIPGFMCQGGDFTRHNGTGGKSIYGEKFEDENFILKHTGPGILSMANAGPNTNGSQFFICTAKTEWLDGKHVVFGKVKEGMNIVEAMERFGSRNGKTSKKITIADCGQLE
Experimental: Cyclophilin A TR-FRET Competitive Binding Assay
Inhibitor potency was measured using a competitive binding assay with a time-resolved fluorescence resonance energy transfer (TR-FRET) readout. […] An IC50 value was calculated using a four-parameter logistic fit.

Structure (SMILES) | ring closure, yield of all isomers (from C=Cc1cc2cc([C@@H](C)NC(=O)[C@@H]3CCCN(C(=O)[C@H](C)NC(=O)[C@@H](OC(=O)[C@H](C)[C@@H](/C=C/C)OC)C(C)C)N3)ccc2cn1, rcm bond, Hoveyda-Grubbs 2nd generation, toluene, 2.98 mM, 125.0 °C, 6.0 h) | ring closure, yield of all isomers (from CO[C@H]1CC[C@](/C=C/c2ccc3ccc([C@@H](C)N)nc3c2)(C(=O)O[C@H](C(=O)N[C@@H](C)C(=O)N2CCC[C@@H](C(=O)O)N2)C(C)C)CC1, amide bond, HATU/DIPEA, DCM, 4 steps) | EC50 ([1]; Hepatitis C virus, Huh-7, 72 h) | inhibition at 1 µM ([1]; Hepatitis C virus) | IC50 (cyclophilin A) | Replicon 1b % inhibition at 1 μM ([1]; 1b replicon, 1 μM compound, 1 µM) | EC50 [1]
CO[C@@H]1C=Cc2cc3cc(ccc3cn2)[C@@H](C)NC(=O)[C@@H]2CCCN(N2)C(=O)[C@H](C)NC(=O)[C@H](C(C)C)OC(=O)[C@@H]1C | 1% |  |  |  |  |  | 
CO[C@H]1CC[C@@]2(/C=C/c3ccc4ccc(nc4c3)[C@@H](C)NC(=O)[C@@H]3CCCN(N3)C(=O)[C@H](C)NC(=O)[C@H](C(C)C)OC2=O)CC1 |  | 6.2% |  |  |  |  | 
CC(C)[C@@H]1OC(=O)C2(/C=C/c3ccc4ccc(nc4c3)[C@@H](C)NC(=O)[C@@H]3CCCN(N3)C(=O)[C@H](C)NC1=O)CCN(C(=O)OC(C)(C)C)CC2 [Compound 84] |  |  | 1100 to 10000 nM | 10% | 1000 to 10000 nM |  | 
CC(C)[C@@H]1OC(=O)C(CF)(CF)/C=C/c2ccc3ccc(nc3c2)[C@@H](C)NC(=O)[C@@H]2CCCN(N2)C(=O)[C@H](C)NC1=O [Compound 99] |  |  | < 1000 nM | 100% | < 100 nM |  | 
CC(C)[C@@H]1OC(=O)C2(/C=C/c3ccc4ccc(nc4c3)[C@@H](C)NC(=O)[C@]3(C)CCCN(N3)C(=O)[C@H](C)NC1=O)CCC(O)CC2 (mixture of isomers) [Compound 94] |  |  | < 1000 nM | 94% | < 100 nM |  | 
CC(C)C(=O)O[C@H]1CC[C@]2(/C=C/c3ccc4ccc(nc4c3)[C@@H](C)NC(=O)[C@@H]3CCCN(N3)C(=O)[C@H](C)NC(=O)[C@H](C(C)C)OC2=O)CC1 [Compound 81] |  |  | < 1000 nM | 100% | < 100 nM |  | 
CC1/C=C/c2ccc3ccc(nc3c2)[C@@H](C)OC(=O)[C@@H]2CCCN(N2)C(=O)[C@H](C)NC(=O)[C@H](C(C)C)OC1 (single isomer, unassigned) [Compound 28] |  |  |  |  | < 100 nM | 99% | < 1000 nM
C[C@@H]1NC(=O)[C@H]([C@@H](C)O)OC(=O)C(C)(C)/C=C/c2ccc3ccc(nc3c2)[C@@H](C)NC(=O)[C@@H]2CCCN(N2)C1=O [Compound 87] |  |  | < 1000 nM | 61% | < 100 nM |  | 
CC(C)[C@@H]1NCC(C)(C)/C=C/c2ccc3ccc(nc3c2)[C@@H](C)OC(=O)[C@@H]2CCCN(N2)C(=O)[C@H](C)NC1=O [Compound 25] |  |  | < 1000 nM | 98% | < 100 nM |  | 
CC(C)[C@@H]1OC(=O)C2(/C=C/c3ccc4ccc(nc4c3)[C@@H](C)NC(=O)[C@@H]3CCCN(N3)C(=O)[C@H](C)NC1=O)COC(CF)(CF)OC2 [Compound 107] |  |  | < 1000 nM | 100% | < 100 nM |  | 
CC([C@@H]1OC(=O)C(C)(C)/C=C/c2ccc3ccc(nc3c2)[C@@H](C)NC(=O)[C@@H]2CCCN(N2)C(=O)[C@H](C)NC1=O)C(F)(F)F (some centres unmarked) [Compound 71] |  |  | < 1000 nM | 96% | < 100 nM |  | 
CC(C)[C@@H]1N[C@@H](C(F)(F)F)C(C)(C)/C=C/c2ccc3ccc(nc3c2)[C@@H](C)OC(=O)[C@@H]2CCCN(N2)C(=O)[C@H](C)NC1=O [Compound 32] |  |  | 1100 to 10000 nM | 56% | 101 to 1000 nM |  | 
C[C@@H]1NC(=O)[C@H](C2COC2)OC(=O)C(C)(C)/C=C/c2ccc3ccc(nc3c2)[C@@H](C)NC(=O)[C@@H]2CCCN(N2)C1=O [Compound 95] |  |  | < 1000 nM | 88% | < 100 nM |  | 
CC(C)[C@@H]1OCCCCCc2cc3cc(ccc3cn2)[C@@H](C)OC(=O)[C@@H]2CCCN(N2)C(=O)[C@H](C)NC1=O [Compound 24] |  |  | < 1000 nM | 83% | < 100 nM |  | 
CC(C)[C@@H]1OC(=O)[C@H](CCC(C)N(C)C)C/C=C/c2cc3cc(ccc3cn2)[C@@H](C)NC(=O)[C@@H]2CCCN(N2)C(=O)[C@H](C)NC1=O (mixture of isomers) [Compound 16] |  |  | 1100 to 10000 nM | 20% | < 100 nM |  | 
CC(C)[C@@H]1OC(=O)C2(/C=C/c3ccc4ccc(nc4c3)[C@@H](C)NC(=O)[C@@H]3CCCN(N3)C(=O)[C@H](C)NC1=O)CN(S(C)(=O)=O)CCO2 (some centres unmarked) [Compound 97] |  |  | < 1000 nM | 96% | < 100 nM |  | 
CC(C)[C@@H]1OC(=O)C2(/C=C/c3ccc4ccc(nc4c3)[C@@H](C)NC(=O)[C@@H]3CCCN(N3)C(=O)[C@H](C)NC1=O)CCOC2 (some centres unmarked) [Compound 73] |  |  | < 1000 nM | 97% | < 100 nM |  | 
CC(C)[C@@H]1OC(=O)[C@@](C)(COC(F)(F)F)/C=C/c2ccc3ccc(nc3c2)[C@@H](C)NC(=O)[C@@H]2CCCN(N2)C(=O)[C@H](C)NC1=O [Compound 56] |  |  | < 1000 nM | 99% | < 100 nM |  | 
CC(C)[C@@H]1OC(=O)C(C)(C)/C=C/c2ccc3ccc(nc3c2)[C@@H](C)N(C)C(=O)[C@@H]2CCCN(N2)C(=O)[C@H](C)NC1=O [Compound 47] |  |  | < 1000 nM | 100% | < 100 nM |  | 
CCC(=O)O[C@H]1CC[C@@]2(/C=C/c3ccc4ccc(nc4c3)[C@@H](C)NC(=O)[C@@H]3CCCN(N3)C(=O)[C@H](C)NC(=O)[C@H](C(C)C)OC2=O)CC1 [Compound 109] |  |  | < 1000 nM | 99% | < 100 nM |  | 
CCCC(=O)O[C@H]1CC[C@@]2(/C=C/c3ccc4ccc(nc4c3)[C@@H](C)NC(=O)[C@@H]3CCCN(N3)C(=O)[C@H](C)NC(=O)[C@H](C(C)C)OC2=O)CC1 [Compound 108] |  |  | < 1000 nM | 99% | < 100 nM |  | 
C[C@@H]1NC(=O)[C@H](C2CC2)OC(=O)C(C)(C)/C=C/c2ccc3ccc(nc3c2)[C@@H](C)NC(=O)[C@@H]2CCCN(N2)C1=O [Compound 78] |  |  | < 1000 nM | 99% | < 100 nM |  | 
CC(C)[C@@H]1OC(=O)C2(/C=C/c3ccc4ccc(nc4c3)[C@@H](C)NC(=O)[C@@H]3CCCN(N3)C(=O)[C@H](C)NC1=O)CCCOC2 (single isomer, unassigned) [Compound 51] |  |  | < 1000 nM | 100% | < 100 nM |  | 
CC(C)[C@@H]1OC(=O)C(C)(C)C/C=C/c2cc3cc(ccc3cn2)[C@@H](C)NC(=O)[C@@H]2CCCN(N2)C(=O)[C@H](C)NC1=O [Compound 12] |  |  | < 1000 nM | 100% | < 100 nM |  | 
C[C@@H]1NC(=O)[C@H](C2CCOCC2)OC(=O)C(C)(C)/C=C/c2ccc3ccc(nc3c2)[C@@H](C)NC(=O)[C@@H]2CCCN(N2)C1=O [Compound 67] |  |  | < 1000 nM | 67% | 101 to 1000 nM |  | 
C[C@@H]1NC(=O)[C@H](C(C)(C)F)OC(=O)C2(/C=C/c3ccc4ccc(nc4c3)[C@@H](C)NC(=O)[C@@H]3CCCN(N3)C1=O)COCOC2 [Compound 72] |  |  | 1100 to 10000 nM | -6% | 1000 to 10000 nM |  | 
C[C@@H]1NC(=O)[C@H](C2CC2)OC(=O)C2(/C=C/c3ccc4ccc(nc4c3)[C@@H](C)NC(=O)[C@@H]3CCCN(N3)C1=O)COCCOC2 [Compound 93] |  |  | < 1000 nM | 98% | < 100 nM |  | 
CC(=O)O[C@H]1CC[C@]2(/C=C/c3ccc4ccc(nc4c3)[C@@H](C)NC(=O)[C@@H]3CCCN(N3)C(=O)[C@H](C)NC(=O)[C@H](C(C)C)OC2=O)CC1 [Compound 112] |  |  | < 1000 nM | 100% | < 100 nM |  | 
